Drawing on the Kinase Knowledgebase extract (Sharma et al. 2016), this text covers IC50 for 81 compounds.

Some results are limits rather than exact numbers.

For this test, the target named is PIK3CG (human) (UniProt P48736). As to the kind of experiment: Assessment of PIK3CG Kinase Activity.
Sequence of PIK3CG (human) (P48736 whole entry, looked up): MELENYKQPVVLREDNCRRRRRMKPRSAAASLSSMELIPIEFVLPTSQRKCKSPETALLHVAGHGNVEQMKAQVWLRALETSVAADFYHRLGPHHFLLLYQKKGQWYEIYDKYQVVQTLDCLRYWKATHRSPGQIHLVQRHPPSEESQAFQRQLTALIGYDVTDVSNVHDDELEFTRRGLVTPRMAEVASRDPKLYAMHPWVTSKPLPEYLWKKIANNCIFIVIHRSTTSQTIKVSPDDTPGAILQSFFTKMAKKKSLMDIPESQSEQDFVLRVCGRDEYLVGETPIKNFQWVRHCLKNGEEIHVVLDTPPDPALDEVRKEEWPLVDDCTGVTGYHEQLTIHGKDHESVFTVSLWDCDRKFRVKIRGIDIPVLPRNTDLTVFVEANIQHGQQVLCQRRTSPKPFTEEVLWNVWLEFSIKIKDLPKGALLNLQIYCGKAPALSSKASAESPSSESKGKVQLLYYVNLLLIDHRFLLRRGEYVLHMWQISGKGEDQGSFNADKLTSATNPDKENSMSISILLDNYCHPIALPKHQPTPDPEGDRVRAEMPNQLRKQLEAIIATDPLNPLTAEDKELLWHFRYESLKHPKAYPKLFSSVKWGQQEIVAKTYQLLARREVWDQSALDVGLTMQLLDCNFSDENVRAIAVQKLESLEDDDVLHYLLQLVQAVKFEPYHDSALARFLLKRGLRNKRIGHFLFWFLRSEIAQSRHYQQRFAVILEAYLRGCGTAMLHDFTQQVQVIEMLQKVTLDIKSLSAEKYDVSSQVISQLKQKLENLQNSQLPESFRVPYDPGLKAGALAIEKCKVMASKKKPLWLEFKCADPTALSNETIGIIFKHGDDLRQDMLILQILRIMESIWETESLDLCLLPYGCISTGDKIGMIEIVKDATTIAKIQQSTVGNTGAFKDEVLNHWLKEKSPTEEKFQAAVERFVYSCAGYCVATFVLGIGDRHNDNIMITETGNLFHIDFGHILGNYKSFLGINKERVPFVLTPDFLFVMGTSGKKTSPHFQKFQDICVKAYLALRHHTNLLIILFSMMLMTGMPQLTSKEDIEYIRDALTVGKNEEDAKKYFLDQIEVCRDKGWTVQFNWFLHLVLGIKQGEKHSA
For the compound `CCc1csc(CCNC(=O)Nc2nc3c(s2)-c2nc(-c4ccccc4C(F)(F)F)ncc2CC3)n1`, the half-maximal inhibitory concentration (IC50) is less than 800 nM.
Next, `CN(C)C(=O)CCNC(=O)Nc1nc2c(s1)-c1nc(-c3ccccc3Cl)ncc1CC2`: less than 800 nM.
In the case of `Cc1nn(C)cc1CNC(=O)Nc1nc2c(s1)-c1nc(-c3ccccc3Cl)ncc1CC2`, the IC50 is less than 800 nM.
In the case of `CCn1ccc(CNC(=O)Nc2nc3c(s2)-c2nc(-c4ccccc4Cl)ncc2CC3)n1` it was less than 800 nM; in that of `NC(=O)c1cccc(CNC(=O)Nc2nc3c(s2)-c2nc(-c4ccccc4Cl)ncc2CC3)c1`, less than 800 nM.
Compound `CN(C)C(=O)Nc1cccc(CNC(=O)Nc2nc3c(s2)-c2nc(-c4ccccc4Cl)ncc2CC3)c1` registered an IC50 of less than 800 nM.
In the case of `O=C(NCCc1ccccn1)Nc1nc2c(s1)-c1nc(-c3ccccc3Cl)ncc1CC2` it was less than 800 nM; in that of `CCc1nnc(CCNC(=O)Nc2nc3c(s2)-c2nc(-c4ccccc4C(F)(F)F)ncc2CC3)o1`, less than 800 nM.
`Cn1cc(CCNC(=O)Nc2nc3c(s2)-c2nc(-c4ccccc4Cl)ncc2CC3)cn1` displayed a half-maximal inhibitory concentration (IC50) of less than 800 nM.
Next, `O=C(NCc1cccc(NC(=O)N2CCOCC2)c1)Nc1nc2c(s1)-c1nc(-c3ccccc3Cl)ncc1CC2`: less than 800 nM.
Next, `O=C(NCCc1ccncc1)Nc1nc2c(s1)-c1nc(-c3ccccc3Cl)ncc1CC2`: less than 800 nM; `CN(C)CCNC(=O)Nc1nc2c(s1)-c1nc(-c3ccccc3Cl)ncc1CC2`: less than 800 nM.
Consider `CN1CCN(C(=O)Nc2nc3c(s2)-c2nc(-c4ccccc4Cl)ncc2CC3)CC1`, for which the IC50 is less than 800 nM.
In the case of `CCc1noc(CCNC(=O)Nc2nc3c(s2)-c2nc(-c4ccccc4Cl)ncc2CC3)n1` it was less than 800 nM.
`O=C(Nc1nc2c(s1)-c1nc(-c3ccccc3Cl)ncc1CC2)NC1CCCCC1` displayed an IC50 of less than 800 nM.
Next, `CC(C)CNC(=O)N[C@H]1CCN(C(=O)Nc2nc3c(s2)-c2nc(-c4ccccc4Cl)ncc2CC3)C1`: less than 800 nM; `CCC(=O)N[C@H]1CCN(C(=O)Nc2nc3c(s2)-c2nc(-c4ccccc4Cl)ncc2CC3)C1`: less than 800 nM.
Next, `O=C(Nc1nc2c(s1)-c1nc(-c3ccccc3Cl)ncc1CC2)N1CCC(N2CCNC2=O)CC1`: less than 800 nM.
Next, `Cn1ccc(CNC(=O)Nc2nc3c(s2)-c2nc(-c4ccccc4Cl)ncc2CC3)n1`: less than 800 nM; `CC(C)(C)OC(=O)NCc1ccccc1NC(=O)Nc1nc2c(s1)-c1nc(-c3ccccc3Cl)ncc1CC2`: less than 800 nM.
`Cc1c[nH]c(CCNC(=O)Nc2nc3c(s2)-c2nc(-c4ccccc4Cl)ncc2CC3)n1` showed an IC50 of less than 800 nM.
In the case of `CC(C)(C)OC(=O)NCc1cccc(CNC(=O)Nc2nc3c(s2)-c2nc(-c4ccccc4Cl)ncc2CC3)c1` it was less than 800 nM; in that of `O=C(Nc1nc2c(s1)-c1nc(-c3ccccc3Cl)ncc1CC2)Nc1ccccc1CN1CCNC1=O`, less than 800 nM; in that of `O=C(NCc1cccc(N2CCCCC2)c1)Nc1nc2c(s1)-c1nc(-c3ccccc3Cl)ncc1CC2`, less than 800 nM.
In the case of `O=C(Nc1nc2c(s1)-c1nc(-c3ccccc3Cl)ncc1CC2)N1CCC2(CC1)C(=O)NCN2c1ccccc1` it was less than 800 nM.
In the case of `COCC(=O)N[C@H]1CCN(C(=O)Nc2nc3c(s2)-c2nc(-c4ccccc4Cl)ncc2CC3)C1` it was less than 800 nM.
`CC(C)(C)c1ncc2c(n1)-c1sc(NC(=O)NCc3cccc(N4CCNC4=O)c3)nc1CC2` had an IC50 of less than 800 nM.
In the case of `O=C(Nc1nc2c(s1)-c1nc(-c3ccccc3Cl)ncc1CC2)N1CCC(N2Cc3ccccc3NC2=O)C1` (stereo unspecified) it was less than 800 nM; in that of `CCNC(=O)Nc1nc2c(s1)-c1nc(-c3ccccc3Br)ncc1CC2`, less than 800 nM.
Next, `O=C(NCc1cc(C2CC2)n[nH]1)Nc1nc2c(s1)-c1nc(-c3ccccc3Cl)ncc1CC2`: less than 800 nM; `Cc1cccc(CNC(=O)Nc2nc3c(s2)-c2nc(-c4ccccc4Cl)ncc2CC3)c1`: less than 800 nM.
`CC(C)CN(C)C(=O)N[C@H]1CCN(C(=O)Nc2nc3c(s2)-c2nc(-c4ccccc4Cl)ncc2CC3)C1` showed an IC50 of less than 800 nM.
In the case of `O=C(NCc1cccc(NC(=O)N2CCCC2)c1)Nc1nc2c(s1)-c1nc(-c3ccccc3Cl)ncc1CC2` it was less than 800 nM; in that of `CC(C)COC(=O)N[C@H]1CCN(C(=O)Nc2nc3c(s2)-c2nc(-c4ccccc4Cl)ncc2CC3)C1`, less than 800 nM.
In the case of `O=C(NCCc1nc(C2CC2)no1)Nc1nc2c(s1)-c1nc(-c3ccccc3Br)ncc1CC2` it was less than 800 nM.
Next, `CCc1noc(CCNC(=O)Nc2nc3c(s2)-c2nc(-c4ccccc4Br)ncc2CC3)n1`: less than 800 nM.
The compound `CNC(=O)Nc1cccc(CNC(=O)Nc2nc3c(s2)-c2nc(-c4ccccc4Cl)ncc2CC3)c1` gave a concentration for half-maximal inhibition (IC50) of less than 800 nM.
In the case of `CC(C)(C)c1cc(CNC(=O)Nc2nc3c(s2)-c2nc(-c4ccccc4Cl)ncc2CC3)[nH]n1` it was less than 800 nM; in that of `CCN1CCC[C@@H]1CNC(=O)Nc1nc2c(s1)-c1nc(-c3ccccc3Cl)ncc1CC2`, less than 800 nM.
In the case of `Nc1c(Br)cc(OCC2CCN(C(=O)Nc3nc4c(s3)-c3nc(-c5ccccc5Cl)ncc3CC4)C2)cc1Br` (stereo unspecified) it was less than 800 nM.
Next, `O=C(NCc1cccc(NC(=O)C2CC2)c1)Nc1nc2c(s1)-c1nc(-c3ccccc3Cl)ncc1CC2`: less than 800 nM.
As to `O=C(CCNC(=O)Nc1nc2c(s1)-c1nc(-c3ccccc3Cl)ncc1CC2)NCC1CC1`, the concentration for half-maximal inhibition (IC50) is less than 800 nM.
Next, `CC(C)(C)OC(=O)N1CCN(c2cccc(NC(=O)Nc3nc4c(s3)-c3nc(-c5ccccc5Cl)ncc3CC4)c2)CC1`: less than 800 nM; `CC(NC(=O)Nc1nc2c(s1)-c1nc(-c3ccccc3Cl)ncc1CC2)c1cccc(NC(=O)OC(C)(C)C)c1` (stereo unspecified): less than 800 nM.
In the case of `COc1cccc(CCNC(=O)Nc2nc3c(s2)-c2nc(-c4ccccc4Cl)ncc2CC3)c1` it was less than 800 nM; in that of `O=C(NCCc1cn[nH]c1)Nc1nc2c(s1)-c1nc(-c3ccccc3Cl)ncc1CC2`, less than 800 nM; in that of `COCCC(=O)N[C@H]1CCN(C(=O)Nc2nc3c(s2)-c2nc(-c4ccccc4Cl)ncc2CC3)C1`, less than 800 nM.
Compound `CC(C)(C)OC(=O)N1CCCCC1CNC(=O)Nc1nc2c(s1)-c1nc(-c3ccccc3Cl)ncc1CC2` (stereo unspecified) displayed an IC50 of less than 800 nM.
Next, `O=C(NC[C@@H]1CCCN1)Nc1nc2c(s1)-c1nc(-c3ccccc3Cl)ncc1CC2`: less than 800 nM.
Next, `CNC(=O)CCNC(=O)Nc1nc2c(s1)-c1nc(-c3ccccc3Cl)ncc1CC2`: less than 800 nM.
In the case of `CCn1cc(CNC(=O)Nc2nc3c(s2)-c2nc(-c4cccc(F)c4Cl)ncc2CC3)cn1` it was less than 800 nM.
In the case of `CN(C)CCCNC(=O)Nc1nc2c(s1)-c1nc(-c3ccccc3Cl)ncc1CC2`, the IC50 was less than 800 nM.
Next, `Cn1cc(CNC(=O)Nc2nc3c(s2)-c2nc(-c4ccccc4Cl)ncc2CC3)cn1`: less than 800 nM; `CS(=O)(=O)c1cccc(CNC(=O)Nc2nc3c(s2)-c2nc(-c4ccccc4Cl)ncc2CC3)c1`: less than 800 nM; `O=C(NCC1CCOCC1)Nc1nc2c(s1)-c1nc(-c3ccccc3Cl)ncc1CC2`: less than 800 nM.
In the case of `O=C(CCNC(=O)Nc1nc2c(s1)-c1nc(-c3ccccc3Cl)ncc1CC2)NC1CC1` it was less than 800 nM.
In the case of `O=C(CC1CC1)N[C@H]1CCN(C(=O)Nc2nc3c(s2)-c2nc(-c4ccccc4Cl)ncc2CC3)C1` it was less than 800 nM.
In turn, `O=C1CC[C@H](NC(=O)Nc2nc3c(s2)-c2nc(-c4ccccc4Cl)ncc2CC3)CN1` yielded an IC50 of less than 800 nM.
In the case of `COCCN(C)C(=O)Nc1nc2c(s1)-c1nc(-c3ccccc3Cl)ncc1CC2` it was less than 800 nM; in that of `O=C(Nc1nc2c(s1)-c1nc(-c3ccccc3Cl)ncc1CC2)NC1CCC1`, less than 800 nM.
On to `O=C(Nc1nc2c(s1)-c1nc(-c3ccccc3Cl)ncc1CC2)NC1CCC(N2CCNC2=O)CC1` (stereo unspecified), for which the IC50 is less than 800 nM.
Next, `CC(C)NC(=O)Nc1nc2c(s1)-c1nc(-c3ccccc3Cl)ncc1CC2`: less than 800 nM.
In the case of `O=C(NCc1cccc(N2CCNC2=O)c1)Nc1nc2c(s1)-c1nc(-c3ccccc3Br)ncc1CC2` it was less than 800 nM.
In the case of `CC(C)CNC(=O)Nc1nc2c(s1)-c1nc(-c3ccccc3Cl)ncc1CC2`, the IC50 is less than 800 nM.
In the case of `NC(=O)Nc1nc2c(s1)-c1nc(-c3ccccc3Br)ncc1CC2` it was less than 800 nM.
In the case of `O=C(NC[C@@H]1CCCN1C(=O)OCc1ccccc1)Nc1nc2c(s1)-c1nc(-c3ccccc3Cl)ncc1CC2` it was less than 800 nM; in that of `CCNC(=O)Nc1nc2c(s1)-c1nc(-c3ccccc3F)ncc1CC2`, less than 800 nM; in that of `CC(C)(C)OC(=O)N[C@@H]1CCN(C(=O)Nc2nc3c(s2)-c2nc(-c4ccccc4Cl)ncc2CC3)C1`, less than 800 nM.
Next, `COC(=O)N[C@@H]1CCN(C(=O)Nc2nc3c(s2)-c2nc(-c4ccccc4Cl)ncc2CC3)C1`: less than 800 nM.
Turning to `O=C(Nc1nc2c(s1)-c1nc(-c3ccccc3Cl)ncc1CC2)N1CC[C@H](NS(=O)(=O)N2CCOCC2)C1`, the IC50 is less than 800 nM.
With `CC(C)CN(C)C(=O)c1cccc(CNC(=O)Nc2nc3c(s2)-c2nc(-c4ccccc4Cl)ncc2CC3)c1`, the IC50 was less than 800 nM.
In the case of `CC(C)NC(=O)Nc1nc2c(s1)-c1nc(-c3cccc(F)c3Cl)ncc1CC2` it was less than 800 nM; in that of `O=C(NCc1cccc(N2CCOCC2)c1)Nc1nc2c(s1)-c1nc(-c3ccccc3Cl)ncc1CC2`, less than 800 nM.
For the compound `CNC(=O)Nc1nc2c(s1)-c1nc(-c3ccccc3F)ncc1CC2`, the IC50 is less than 800 nM.
As to `CC(C)CNC(=O)c1cccc(CNC(=O)Nc2nc3c(s2)-c2nc(-c4ccccc4Cl)ncc2CC3)c1`, the IC50 was less than 800 nM.
In turn, `O=C(Nc1nc2c(s1)-c1nc(-c3ccccc3Cl)ncc1CC2)N1CC[C@@H](NC(=O)N2CCOCC2)C1` showed an IC50 of less than 800 nM.
Compound `CCCn1ccc(CNC(=O)Nc2nc3c(s2)-c2nc(-c4ccccc4Cl)ncc2CC3)n1` displayed a half-maximal inhibitory concentration (IC50) of less than 800 nM.
`O=C(NCc1cccc(C(F)(F)F)c1)Nc1nc2c(s1)-c1nc(-c3ccccc3Cl)ncc1CC2` gave a half-inhibitory concentration (IC50) of less than 800 nM.
In the case of `CCCn1cnc(CCNC(=O)Nc2nc3c(s2)-c2nc(-c4ccccc4Br)ncc2CC3)c1` it was less than 800 nM; in that of `CCOC(=O)CCNC(=O)Nc1nc2c(s1)-c1nc(-c3ccccc3Cl)ncc1CC2`, less than 800 nM; in that of `CS(=O)(=O)N[C@H]1CCN(C(=O)Nc2nc3c(s2)-c2nc(-c4ccccc4Cl)ncc2CC3)C1`, less than 800 nM.
